Paper PMC4890002, “The CebE/MsiK Transporter is a Doorway to the Cello-oligosaccharide-mediated Induction of Streptomyces scabies Pathogenicity” (Scientific Reports, 2016)
Read-outs that look alike come from different tables or passages of the source.

Columns and labels:
[1] = biological target: T1, CebR (SCAB57761) (Streptomyces scabiei, UniProt C9Z452); experiment: EMSA: loss of DNA binding of pure CebR-His6 preincubated with the sugar; assay type: biochemical
T1 construct: gene SCAB_57761; CebR-His6 (pure)

[2] = biological target: T2, CebE (SCAB57751, CebE^scab) (Streptomyces scabiei, UniProt C9Z451); experiment: intrinsic tryptophan fluorescence titration of purified protein; assay type: binding
T2 construct: gene SCAB_57751; N-terminally 6His-tagged CebE without its first 44 codons (signal peptide and membrane-anchoring lipopeptide), produced in E. coli
T2 sequence (C9Z451 45-454): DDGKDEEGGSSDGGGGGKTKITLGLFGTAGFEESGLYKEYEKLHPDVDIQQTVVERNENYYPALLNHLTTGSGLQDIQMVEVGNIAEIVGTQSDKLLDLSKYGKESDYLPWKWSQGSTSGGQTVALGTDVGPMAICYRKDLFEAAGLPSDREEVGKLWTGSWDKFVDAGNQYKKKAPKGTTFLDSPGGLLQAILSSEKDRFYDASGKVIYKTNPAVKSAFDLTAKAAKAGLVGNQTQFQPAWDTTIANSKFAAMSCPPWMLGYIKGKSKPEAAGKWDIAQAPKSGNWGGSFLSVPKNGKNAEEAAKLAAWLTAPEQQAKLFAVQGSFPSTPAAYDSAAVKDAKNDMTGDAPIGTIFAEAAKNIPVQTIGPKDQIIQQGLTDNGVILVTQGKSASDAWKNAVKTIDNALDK

[3] = biological target: CebR (UniProt C9Z452 1-352); experiment: EMSA; CebR 0-480 nM; no oligosaccharide; EMSA as in earlier work (buffer, salt, pH not given); 15 pmol Cy5 probe and 150 pmol CebR-6His in Methods, legend gives 6 nM probe (panel D) and CebR 0-480 nM (panel C); 1% agarose gel run at room temperature; settings: protein: recombinant; tags: His6 (printed as CebR-6His / CebR-His6); chain copies: 2; blunt

In the case of `OC[C@H]1O[C@@H](O[C@H]2[C@H](O)[C@@H](O)[C@H](O[C@H]3[C@H](O)[C@@H](O)C(O)O[C@@H]3CO)O[C@@H]2CO)[C@H](O)[C@@H](O)[C@@H]1O` (some centres unmarked) [(Glc)3, cellotriose], the “EMSA: loss of DNA binding of pure CebR-His6 preincubated with the sugar” value [1] is reported as “EMSAs demonstrating that cellobiose and cellotriose are able to inhibit the DNA-binding ability of CebR” and the Kd ([2]; read-out: Kd) is reported as 2 nM.

With `OC[C@H]1O[C@@H](O[C@H]2[C@H](O)[C@@H](O)C(O)O[C@@H]2CO)[C@H](O)[C@@H](O)[C@@H]1O` (some centres unmarked) [(Glc)2, cellobiose] the “EMSA: loss of DNA binding of pure CebR-His6 preincubated with the sugar” value [1] was “EMSAs demonstrating that cellobiose and cellotriose are able to inhibit the DNA-binding ability of CebR” and the Kd [2] was 14 nM.

B1: cbsbglC probe (dsDNA)
DNA 1: CGACCACCAATGGGAGCGCTTCCATGCCTGAACC
DNA 2: GGTTCAGGCATGGAAGCGCTCCCATTGGTGGTCG
B1: binds [3].
